From ChEMBL document CHEMBL1141600, “Biphenyl versus phenylpyridazine derivatives: the role of the heterocycle in a series of acyl-CoA:cholesterol acyl transferase inhibitors” (J Med Chem, 2008)

Experiments:
[1] = target: T1, Sterol O-acyltransferase 2 (Homo sapiens) (UniProt O75908); assay: Inhibition of human ACAT2 expressed in insect Hi5 cells at 50 uM; settings: BTI-TN-5B1-4
T1 sequence (whole entry): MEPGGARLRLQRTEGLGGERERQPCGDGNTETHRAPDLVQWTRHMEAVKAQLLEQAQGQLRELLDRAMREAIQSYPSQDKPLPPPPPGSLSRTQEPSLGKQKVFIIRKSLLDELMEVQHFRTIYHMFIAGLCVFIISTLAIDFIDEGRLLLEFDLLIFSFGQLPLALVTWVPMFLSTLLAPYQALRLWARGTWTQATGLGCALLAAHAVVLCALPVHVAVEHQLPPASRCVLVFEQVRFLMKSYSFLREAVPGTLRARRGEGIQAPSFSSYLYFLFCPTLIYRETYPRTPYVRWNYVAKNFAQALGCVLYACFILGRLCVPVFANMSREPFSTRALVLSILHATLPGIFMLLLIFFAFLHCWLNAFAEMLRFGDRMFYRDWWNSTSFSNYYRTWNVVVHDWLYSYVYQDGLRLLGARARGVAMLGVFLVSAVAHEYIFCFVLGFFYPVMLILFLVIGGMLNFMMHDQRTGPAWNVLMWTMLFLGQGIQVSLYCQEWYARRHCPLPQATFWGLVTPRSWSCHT

[2] = target: T2, Sterol O-acyltransferase 2 (Homo sapiens, UniProt O75908); assay: Inhibition of human ACAT2 expressed in insect Hi5 cells; set-up: species or system BTI-TN-5B1-4
T2 sequence (O75908 whole entry): T1 sequence (whole entry)

[3] = target: T3, Sterol O-acyltransferase 1 (Homo sapiens) (UniProt P35610); assay: Inhibition of human ACAT1 expressed in insect Hi5 cells at 0.5 uM; settings: BTI-TN-5B1-4
T3 sequence (whole entry): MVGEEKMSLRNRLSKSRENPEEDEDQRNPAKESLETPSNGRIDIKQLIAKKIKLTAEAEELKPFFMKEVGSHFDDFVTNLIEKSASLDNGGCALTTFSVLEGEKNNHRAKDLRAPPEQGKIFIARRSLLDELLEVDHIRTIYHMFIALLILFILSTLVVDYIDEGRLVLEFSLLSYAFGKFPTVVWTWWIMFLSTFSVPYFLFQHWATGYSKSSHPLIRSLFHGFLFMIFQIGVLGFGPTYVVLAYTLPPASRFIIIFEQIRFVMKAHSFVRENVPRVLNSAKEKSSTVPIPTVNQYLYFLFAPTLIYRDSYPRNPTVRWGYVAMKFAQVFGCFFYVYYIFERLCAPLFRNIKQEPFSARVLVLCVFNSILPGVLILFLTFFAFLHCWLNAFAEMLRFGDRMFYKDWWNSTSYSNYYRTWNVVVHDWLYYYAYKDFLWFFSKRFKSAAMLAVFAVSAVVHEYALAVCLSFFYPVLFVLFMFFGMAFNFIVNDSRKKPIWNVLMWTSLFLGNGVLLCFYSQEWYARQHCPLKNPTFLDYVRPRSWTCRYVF

[4] = target: T1, Sterol O-acyltransferase 2 (Homo sapiens); assay: Inhibition of human ACAT2 expressed in insect Hi5 cells at 0.5 uM; settings: BTI-TN-5B1-4

SMILES | inhibition [1] [%] | other results
CCCCCCCCCNc1ccc(-c2ccccc2)cc1 | 18 | –
CCCCCCCCC(=O)Nc1ccccc1-c1ccccc1 | 27 | IC50 [2]: 414 µM
CCCCCCCCNc1ccc(-c2ccccc2)cc1 | 6 | –
CCCCCCCC/C=C\CCC(CCCC(C(=O)Nc1ccccc1)C(C)C)C(C)C (stereo not given) | – | inhibition [3]: 53%; inhibition [4]: 47%
CCCCCCCCNc1ccccc1-c1ccccc1 | -4 | –
CCCCCCCCCNc1ccccc1-c1ccccc1 | -1 | –

Further lines, with some results ahead:

inhibition [1] [%] | SMILES | other results
-8 | CCCCCCCCCNc1cccc(-c2ccccc2)c1 | –
-6 | CCCCCCCCC(=O)Nc1cccc(-c2ccccc2)c1 | –
39 | CCCCCCCC(=O)Nc1ccccc1-c1ccccc1 | IC50 [2]: 230 µM
20 | CCCCCCCCC(=O)Nc1ccc(-c2ccccc2)cc1 | –
11 | CCCCCCCC(=O)Nc1ccc(-c2ccccc2)cc1 | –
-4 | CCCCCCCC(=O)Nc1cccc(-c2ccccc2)c1 | –
